Target: unphosphorylated-BTK kinase domain (UP-BTK), GST-tagged human BTK (389-659aa) (Homo sapiens (Human), UniProt Q06187)
Assay: BTK kinase Lanthascreen binding assay
Settings: pIC50 = negative log of the IC50 in molar, 60 minutes incubation, 50 nM Tracer 236; for IC50: read-out: BTK_I_binding pIC50 (converted)
Procedure, shortened: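 Values are pIC50, i.e. negative log of IC50 in molar, derived from concentration–response fitting. Each compound competes with a fluorescently labelled tracer for the unphosphorylated kinase domain.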

unphosphorylated-BTK kinase domain (UP-BTK), GST-tagged human BTK (389-659aa), sequence (Q06187 389-659): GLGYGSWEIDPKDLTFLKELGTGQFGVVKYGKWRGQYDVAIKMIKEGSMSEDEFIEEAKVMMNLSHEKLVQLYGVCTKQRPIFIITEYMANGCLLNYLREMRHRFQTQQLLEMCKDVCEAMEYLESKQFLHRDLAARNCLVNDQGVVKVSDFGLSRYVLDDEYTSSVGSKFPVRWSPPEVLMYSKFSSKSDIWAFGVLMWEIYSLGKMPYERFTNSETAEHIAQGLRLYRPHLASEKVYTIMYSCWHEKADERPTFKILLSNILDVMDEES

SMILES	IC50 [nM]	BTK_I_binding pIC50
Cc1cc(Oc2ccccc2)ccc1N1C(=O)Nc2c(C(=O)N[C@@H]3CCCN(C(=O)/C=C/CN)C3)sc3nccc1c23 [Example 27, (R,E)-N-(1-(4-Aminobut-2-enoyl)piperidin-3-yl)-5-(2-methyl-4-phenoxyphenyl)-4-oxo-4,5-dihydro-3H-1-thia-3,5,8-triazaacenaphthylene-2-carboxamide]	50.1	
Cc1cc(Oc2ccccc2)ccc1N1C(=O)Nc2c(C(=O)N[C@@H]3CCN(C(=O)/C=C/CO)C3)sc3nccc1c23 [Example 30, (R,E)-N-(1-(4-Hydroxybut-2-enoyl)pyrrolidin-3-yl)-5-(2-methyl-4-phenoxyphenyl)-4-oxo-4,5-dihydro-3H-1-thia-3,5,8-triazaacenaphthylene-2-carboxamide]		7.6
Cc1cc(Oc2ccccc2)ccc1N1C(=O)Nc2c(C(=O)NC3COCCN(C#N)C3)sc3nccc1c23 (stereo not shown) [Example 31, N-(4-Cyano-1,4-oxazepan-6-yl)-5-(2-methyl-4-phenoxyphenyl)-4-oxo-4,5-dihydro-3H-1-thia-3,5,8-triazaacenaphthylene-2-carboxamide]	20	
C=CC(=O)N1CCC[C@@H](NC(=O)c2sc3nccc4c3c2NC(=O)N4c2ccc(OC3CCCCC3)cc2C)C1 [Example 32, (R)—N-(1-Acryloylpiperidin-3-yl)-5-(4-(cyclohexyloxy)-2-methylphenyl)-4-oxo-4,5-dihydro-3H-1-thia-3,5,8-triazaacenaphthylene-2-carboxamide]	50.1	
C=CC(=O)N1CCC[C@@H](NC(=O)c2sc3nccc4c3c2NC(=O)N4c2ccc(OC(C)C)cc2C)C1 [Example 33, (R)—N-(1-Acryloylpiperidin-3-yl)-5-(4-isopropoxy-2-methylphenyl)-4-oxo-4,5-dihydro-3H-1-thia-3,5,8-triazaacenaphthylene-2-carboxamide]	31.6	
C=CC(=O)N1C[C@H](NC(=O)c2sc3nccc4c3c2NC(=O)N4c2ccc(Oc3ccccc3)cc2C)[C@@H](F)C1 [Example 36, N-((3S,4S)-1-Acryloyl-4-fluoropyrrolidin-3-yl)-5-(2-methyl-4-phenoxyphenyl)-4-oxo-4,5-dihydro-3H-1-thia-3,5,8-triazaacenaphthylene-2-carboxamide]	20	
C=CC(=O)N1C[C@@H](F)[C@@H](NC(=O)c2sc3nccc4c3c2NC(=O)N4c2ccc(Oc3ccccc3)cc2C)C1 [Example 37, N-((3S,4R)-1-Acryloyl-4-fluoropyrrolidin-3-yl)-5-(2-methyl-4-phenoxyphenyl)-4-oxo-4,5-dihydro-3H-1-thia-3,5,8-triazaacenaphthylene-2-carboxamide]		7.6
C=CC(=O)N1CC[C@@H](NC(=O)c2sc3nccc4c3c2NC(=O)N4c2ccc(OC3CCCCC3)cc2C)C1 [Example 39, (R)—N-(1-Acryloylpyrrolidin-3-yl)-5-(4-(cyclohexyloxy)-2-methylphenyl)-4-oxo-4,5-dihydro-3H-1-thia-3,5,8-triazaacenaphthylene-2-carboxamide]		7.4
COC(C)(C)/C=C(\C#N)C(=O)N1CCC[C@@H](NC(=O)c2sc3nccc4c3c2NC(=O)N4c2ccc(Oc3ccccc3)cc2C)C1 [Example 40, (R,E)-N-(1-(2-Cyano-4-methoxy-4-methylpent-2-enoyl)piperidin-3-yl)-5-(2-methyl-4-phenoxyphenyl)-4-oxo-4,5-dihydro-3H-1-thia-3,5,8-triazaacenaphthylene-2-carboxamide]		7.6
Cc1cc(Oc2ccccc2)ccc1N1C(=O)Nc2c(C(=O)N[C@@H]3CCCN(C(=O)/C(C#N)=[13CH]/C4CC4)C3)sc3nccc1c23 [Example 41, (R,E)-N-(1-(2-Cyano-3-^13C-cyclopropylacryloyl)piperidin-3-yl)-5-(2-methyl-4-phenoxyphenyl)-4-oxo-4,5-dihydro-3H-1-thia-3,5,8-triazaacenaphthylene-2-carboxamide]	50.1	
CC#CC(=O)N1CCC[C@@H](NC(=O)c2sc3nccc4c3c2NC(=O)N4c2ccc(Oc3ccccc3)cc2C)C1 [Example 42, (R)—N-(1-(But-2-ynoyl)piperidin-3-yl)-5-(2-methyl-4-phenoxyphenyl)-4-oxo-4,5-dihydro-3H-1-thia-3,5,8-triazaacenaphthylene-2-carboxamide]		7.0
C=CC(=O)N1CC[C@@H](NC(=O)c2sc3nccc4c3c2NC(=O)N4c2c(C)cc(Oc3ccccc3)cc2F)C1 [Example 45, (R)—N-(1-Acryloylpyrrolidin-3-yl)-5-(2-fluoro-6-methyl-4-phenoxyphenyl)-4-oxo-4,5-dihydro-3H-1-thia-3,5,8-triazaacenaphthylene-2-carboxamide]		7.1
N#C/C(=C\C1CC1)C(=O)N1CCC[C@@H](NC(=O)c2sc3nccc4c3c2NC(=O)N4c2ccc(Oc3ccccc3)cc2)C1 [Example 47, (R,E)-N-(1-(2-Cyano-3-cyclopropylacryloyl)piperidin-3-yl)-4-oxo-5-(4-phenoxyphenyl)-4,5-dihydro-3H-1-thia-3,5,8-triazaacenaphthylene-2-carboxamide]		8.0
C=C(F)C(=O)N1CCC[C@@H](NC(=O)c2sc3nccc4c3c2NC(=O)N4c2ccc(Oc3ccccc3)cc2C)C1 [Example 48, (R)—N-(1-(2-Fluoroacryloyl)piperidin-3-yl)-5-(2-methyl-4-phenoxyphenyl)-4-oxo-4,5-dihydro-3H-1-thia-3,5,8-triazaacenaphthylene-2-carboxamide]		6.9
C=CC(=O)N1CCC[C@@H](NC(=O)c2sc3nccc4c3c2NC(=O)N4c2ccc(OC3CC3)cc2C)C1 [Example 51, (R)—N-(1-Acryloylpiperidin-3-yl)-5-(4-cyclopropoxy-2-methylphenyl)-4-oxo-4,5-dihydro-3H-1-thia-3,5,8-triazaacenaphthylene-2-carboxamide]		7.5
Cc1cc(Oc2c(F)cccc2F)ccc1N1C(=O)Nc2c(C(=O)N[C@@H]3CCCN(C)C3)sc3nccc1c23 [Example 52, (R)-5-(4-(2,6-Difluorophenoxy)-2-methylphenyl)-N-(1-methylpiperidin-3-yl)-4-oxo-4,5-dihydro-3H-1-thia-3,5,8-triazaacenaphthylene-2-carboxamide]		7.0
C=CC(=O)N1C[C@H](NC(=O)c2sc3nccc4c3c2NC(=O)N4c2ccc(Oc3ccccc3)cc2C)[C@@H](OC)C1 [Example 54, N-((3S,4S)-1-Acryloyl-4-methoxypyrrolidin-3-yl)-5-(2-methyl-4-phenoxyphenyl)-4-oxo-4,5-dihydro-3H-1-thia-3,5,8-triazaacenaphthylene-2-carboxamide]		7.3
C=CC(=O)N1C[C@@H](O)[C@@H](NC(=O)c2sc3nccc4c3c2NC(=O)N4c2ccc(Oc3ccccc3)cc2C)C1 [Example 58, N-((3S,4R)-1-Acryloyl-4-hydroxypyrrolidin-3-yl)-5-(2-methyl-4-phenoxyphenyl)-4-oxo-4,5-dihydro-3H-1-thia-3,5,8-triazaacenaphthylene-2-carboxamide]		7.6
Cc1c(N2C(=O)Nc3c(C(=O)N[C@@H]4CCCN(C)C4)sc4nccc2c34)ccc(Oc2ccccc2)c1F [Example 59, (R)-5-(3-Fluoro-2-methyl-4-phenoxyphenyl)-N-(1-methylpiperidin-3-yl)-4-oxo-4,5-dihydro-3H-1-thia-3,5,8-triazaacenaphthylene-2-carboxamide]		7.3
CCCN1CCC[C@@H](NC(=O)c2sc3nccc4c3c2NC(=O)N4c2ccc(Oc3ccccc3)cc2C)C1 [Example 60, (R)-5-(2-Methyl-4-phenoxyphenyl)-4-oxo-N-(1-propylpiperidin-3-yl)-4,5-dihydro-3H-1-thia-3,5,8-triazaacenaphthylene-2-carboxamide]		6.8
Cc1c(N2C(=O)Nc3c(C(=O)N[C@H]4CCCOC4)sc4nccc2c34)ccc(Oc2ccccc2)c1F [Example 61, (S)-5-(3-Fluoro-2-methyl-4-phenoxyphenyl)-4-oxo-N-(tetrahydro-2H-pyran-3-yl)-4,5-dihydro-3H-1-thia-3,5,8-triazaacenaphthylene-2-carboxamide]		7.3
C=CC(=O)N1CCC[C@@H](NC(=O)c2sc3nccc4c3c2NC(=O)N4c2ccc(CC)cc2C)C1 [Example 62, (R)—N-(1-Acryloylpiperidin-3-yl)-5-(4-ethyl-2-methylphenyl)-4-oxo-4,5-dihydro-3H-1-thia-3,5,8-triazaacenaphthylene-2-carboxamide]		7.1
C=CC(=O)N1CCC[C@@H](NC(=O)c2sc3nccc4c3c2NC(=O)N4c2ccc(Oc3c(F)cccc3F)cc2C)C1 [Example 64, (R)—N-(1-Acryloylpiperidin-3-yl)-5-(4-(2,6-difluorophenoxy)-2-methylphenyl)-4-oxo-4,5-dihydro-3H-1-thia-3,5,8-triazaacenaphthylene-2-carboxamide]		7.6
C=CC(=O)N1CCC[C@@H](NC(=O)c2sc3nccc4c3c2NC(=O)N4c2ccc(OC3CCOCC3)cc2C)C1 [Example 65, (R)—N-(1-Acryloylpiperidin-3-yl)-5-(2-methyl-4-((tetrahydro-2H-pyran-4-yl)oxy)phenyl)-4-oxo-4,5-dihydro-3H-1-thia-3,5,8-triazaacenaphthylene-2-carboxamide]		6.6
C=CC(=O)N1CCC[C@@H](NC(=O)c2sc3nccc4c3c2NC(=O)N4c2ccc(OCC)cc2C)C1 [Example 66, (R)—N-(1-Acryloylpiperidin-3-yl)-5-(4-ethoxy-2-methylphenyl)-4-oxo-4,5-dihydro-3H-1-thia-3,5,8-triazaacenaphthylene-2-carboxamide]		7.4

— patent US10800792B2, “Inhibitors of Bruton's tyrosine kinase and method of their use” (JANSSEN PHARMACEUTICA NV, priority 2015, dated 2020)
